Where two headings read alike, the source gives them in different places.
Experiments:
[1] = test system: brain monoamine metabolites; assay: Increasing effect on concentration of brain monoamine metabolites; type: in vivo, mice (Std-ddy strain); conditions: Mus musculus, 2 h, non-dosed=100
Method: A group of 5 male mice (Std-ddy strain, 25-30 g) was used for examining effect of the test compounds on concentration of brain monoamine metabolites.
Mice were killed by decapitation 2 hours after treatment with the test compounds. Brains were quickly taken out, homogenized in 1N formic acid-acetone solution, and centrifuged in a refrigerated ultracentrifuge. The supernatant was evaporated by blowing with N2 gas. Then, the residue was again resolved in 0.01 N acetic acid, and served for determining concentration of dopamine metabolites, 3,4-dihydroxyphenylacetic acid (DOPAC) and homovanillic acid (HVA), a norepinephrine metabolite, 3-methyl-4-hydroxyphenylethylene glycol (MOPEG), and a serotonin metabolite, 5-hydroxyindole-3-acetic acid (5-HIAA) concentrations by HPLC with electrochemical detection. The effect of the test compounds on concentration of each monoamine metabolite is shown as % of control (level of non-dosed animals=100) in Table 4.

[2] = test system: apomorphine-induced vomiting; assay: Antagonistic effect on apomorphine-induced vomiting; type: in vivo, dogs (Beagle); conditions: Canis lupus familiaris, sc, apomorphine 0.3 mg/kg s.c. 2 h after compound, read-out: Inhibitory ratio (apomorphine-induced vomiting)
Method: A group of 3-4 dogs (Beagle, 8-15 kg) was used for examining effects on the test compounds on apomorphine-induced vomiting, a known test for evaluating neuroleptic drugs.
Each dog was given a subcutaneous injection of apomorphine hydrochloride (0.3 mg/kg) two hours after the treatment of the test compounds. Then, the frequency of oral vomiting was counted for one hour. The mean counts of the compound-treated group were compared with those of the corresponding control (non-dosed) group, and the percent inhibition was calculated.

[3] = read-out: 5-HIAA concentration, % of control
[4] = read-out: DOPAC concentration, % of control
[5] = read-out: HVA concentration, % of control
[6] = read-out: MOPEG concentration, % of control

Row | Compound | response vs control in vivo at 10 mg/kg [1, 4] [%] | response vs control in vivo at 10 mg/kg [1, 5] [%] | further results
1 | OCCN1CCN(c2cc(-c3ccccc3)c3c(n2)CCCCC3)CC1 [Example 24] | 290 | 317 | response vs control in vivo at 10 mg/kg [1, 3]: 150%; response vs control in vivo at 10 mg/kg [1, 6]: 139%
2 | OCCN1CCN(c2cc(-c3ccc(F)cc3)c3c(n2)CCCCC3)CC1 [Example 26] | 344 | 263 | 
3 | CCN1CCN(c2cc(-c3cccc(F)c3)c3c(n2)CCCCC3)CC1 [Example 27] | 208 | 193 | inhibition in vivo at 3 mg/kg [2]: 47%
4 | CCN1CCN(c2cc(-c3ccccc3F)c3c(n2)CCCCC3)CC1 [Example 29] | 296 | 274 | inhibition in vivo at 3 mg/kg [2]: 63%
5 | Cc1ccc(-c2cc(N3CCN(CCO)CC3)nc3c2CCCCC3)cc1 [Example 35] | 165 | 170 | 
6 | OCCN1CCN(c2cc(-c3ccc(F)cc3)c3c(n2)CCCCCC3)CC1 [Example 37, 2-[4-(2-Hydroxyethyl)-1-piperazinyl]-4-(4-fluorophenyl)-5,6,7,8,9,10-hexahydrocycloocta[b]pyridine] |  |  | inhibition in vivo at 0.3 mg/kg ([2]; dose 0.3 mg/kg): 80%; response vs control in vivo at 3 mg/kg [1, 3]: 95%; response vs control in vivo at 3 mg/kg [1, 4]: 268%; response vs control in vivo at 3 mg/kg [1, 5]: 203%; response vs control in vivo at 3 mg/kg [1, 6]: 143%
7 | Fc1ccc(-c2cc(N3CCN(C4CCCCC4)CC3)nc3c2CCCCCC3)cc1 [Example 39] | 307 | 233 | response vs control in vivo at 10 mg/kg [1, 3]: 97%; response vs control in vivo at 10 mg/kg [1, 6]: 117%
8 | CCN1CCN(c2cc(-c3cccc(F)c3)c3c(n2)CCCCCC3)CC1 [Example 42] | 258 | 211 | 
9 | CCN1CCN(c2cc(-c3ccccc3F)c3c(n2)CCCCCC3)CC1 [Example 43] |  |  | inhibition in vivo at 1 mg/kg ([2]; dose 1.0 mg/kg): 96%
10 | CCN1CCN(c2cc(-c3ccc(Cl)cc3)c3c(n2)CCCCCC3)CC1 [Example 44] | 272 | 210 | 
11 | CCN1CCN(c2cc(-c3cccc(Cl)c3)c3c(n2)CCCCCC3)CC1 [Example 46] | 296 | 235 | 
12 | CCN1CCN(c2cc(-c3ccc(OC)cc3)c3c(n2)CCCCCC3)CC1 [Example 49, 2-(4-Ethyl-1-piperazinyl)-4-(4-methoxyphenyl)-5,6,7,8,9,10-hexahydrocycloocta[b]pyridine] | 197 | 195 | 
13 | Cc1ccc(-c2cc(N3CCN(CCO)CC3)nc3c2CCCCCC3)cc1 [Example 52] | 233 | 216 | 
14 | CCN1CCN(c2cc(-c3ccc(F)c(F)c3)c3c(n2)CCCCCC3)CC1 [Example 54] |  |  | response vs control in vivo at 2 mg/kg [1, 4]: 251%; response vs control in vivo at 2 mg/kg [1, 5]: 250%
15 | CCN1CCN(c2cc(-c3c(F)cccc3F)c3c(n2)CCCCCC3)CC1 [Example 55] |  |  | response vs control in vivo at 2 mg/kg [1, 4]: 379%; response vs control in vivo at 2 mg/kg [1, 5]: 240%

Source: patent US5021421A, “2-(1-Piperazinyl)-4-phenylcycloalkanopyridine derivatives, processes for the production thereof, and pharmaceutical composition containing the same” (Dainippon Pharmaceutical Co., Ltd., priority 1989, dated 1991)
